Experiments:
[1] = cited from earlier work
[2] = 195Pt NMR of ligand exchange of cisplatin in solution; assay type: physicochemical; conditions: for Detection of Pt species by 195Pt NMR: DMSO aq. equimolar to 50 wt% TMG aq., day 1
Description: ^195Pt NMR spectrometry and mass spectrometry
After leaving it at room temperature, the resulting solution was measured at Day 5 and Day 10. We used co-axial tubes and K2[PtCl4] in D2O (for adjusting shim) was in the inner tube.
(1 mL) was prepared and left for one day. The resulting solution was measured by ^195Pt NMR (Day 1; 25,000 scans). NaCl (80 mg) was added and stirred. The solution was left and measured (Day2–4; 25,000 scans). In the case of DMSO aq., the concentration of DMSO uesd was adjusted to be equimolar to 50 wt% TMG aq.

[3] = Solubility of L-carnitine in water; assay type: physicochemical
mice = system: mice; design: method as in PMID 25488130; conditions: cited from earlier work
MDA-MB-231 cells = assay: Anticancer efficiency of cisplatin (cell viability, CellTiter 96 Aqueous One Solution); assay type: cell-based, human; conditions: final 0.1-100 µM
Description: MDA-MB-231 human breast cancer cell was kindly gifted from Prof. Erik Sahai (The Francis-Crick Institute, UK) and described previously^7. The cells were grown and maintained as monolayer cultures in 5% CO2 and humidified atmosphere at 37 °C, using Dulbecco's modified Eagle medium (high glucose with L-glutamine and phenol red, Fujiﬁlm Wako Pure Chemical Corporation), 10 vol% fetal bovine serum (Sigma-Aldrich Co., Llc.), and penicillin–streptomycin solution (×100; Fujiﬁlm Wako Pure Chemical Corporation). The cells were subcultured every 3–5 days by using trypsin solution (0.5w/v% trypsin—5.3mmol/L EDTA·4Na solution without phenol red (×10), Fujiﬁlm Wako Pure Chemical Corporation).
Anticancer efficiency of cisplatin
MDA-MB-231 cells (5,000 cells/well) were seeded to each well of a 96-well plate and then pre-cultured for 24 h. […] The solutions were added to the media to be 100, 10, 1, and 0.1 µM. The cells were cultured for 72 h and the cell viability was investigated with CellTiter 96® Aqueous One Solution.
(§1) The platinating agent (10 mM) was added to the 50 wt% TMG aq. (1 mL) and solubilized by stirring for 1 h. The resulting solution was left for more than one day. The resulting solution was freeze-dried and a pale yellow powder was obtained.

[4] = Dissolution time of cisplatin/TMG powder vs native cisplatin powder; assay type: physicochemical; conditions: native cisplatin powder in 50 wt% TMG aq.
Description: as §1
The yellow precipitates are undissolved cisplatin.

For C[S+](C)[O-] [DMSO, dimethyl sulfoxide], the “Kamlet-Taft β value (hydrogen bond basicity)” value [1] is given as 0.83.

In the case of N.N.O.[Cl][Pt+] [[Pt(NH3)2Cl(H2O)]^+], the “Reversion to Pt(NH3)2Cl2 in the presence of NaCl” value ([2]; 50 wt% TMG aq., after NaCl addition) is reported as “reverted to Pt(NH3)2Cl2”, the “Ratio of Pt species by 195Pt NMR” value ([2]; 50 wt% TMG aq., after NaCl addition, day 2) is reported as 2 mol% and the “Ratio of Pt species by 195Pt NMR” value ([2]; 50 wt% TMG aq., after NaCl addition, day 3) is reported as 0 mol%. For the same molecule, the “Ratio of Pt species by 195Pt NMR” value ([2]; 50 wt% TMG aq., after NaCl addition, day 4) was 0 mol%, the “Ratio of Pt species by 195Pt NMR” value ([2]; 50 wt% TMG aq., left for 24 h (day 1), before NaCl addition) was 17 mol% and the “Detection of Pt species by 195Pt NMR” value [2] was “not detected”.

In the case of C[N+](C)(C)C[C@H](O)CC(=O)[O-] [L-carnitine], the Solubility in water [3] is reported as “approximately 70 wt%”.

In the case of O [water], the “Kamlet-Taft β value (hydrogen bond basicity)” value [1] is given as “around 0.15”.

For [Pt(NH3)Cl(DMSO)]^+, the “Detection of Pt species by 195Pt NMR” value [2] was “detected” and the “Reversion to Pt(NH3)2Cl2 in the presence of NaCl” value ([2]; DMSO aq., after NaCl addition) was “scarcely reverted to Pt(NH3)2Cl2”.

For C[N+](C)(C)CC(=O)O [TMG, Trimethylglycine], the “Effect on nephrotoxicity when cisplatin is administered” value (mice) is listed as “reduces nephrotoxicity”.

With N.N.[Cl][Pt][Cl] [cisplatin] the MDA-MB-231 cell viability (MDA-MB-231 cells; 10 mM cisplatin stock in 50 wt% TMG aq., 72 h) was “decreased in a dose-dependent manner”, the “Anticancer effect (MDA-MB-231 cell viability)” value (MDA-MB-231 cells; cisplatin stock in 50 wt% L-carnitine aq., 72 h) was “retained the anticancer effect” and the “Anticancer effect (MDA-MB-231 cell viability)” value (MDA-MB-231 cells; cisplatin stock in DMSO, 72 h) was “abolished”. The MDA-MB-231 cell viability (MDA-MB-231 cells; solution regenerated with water from freeze-dried cisplatin/TMG powder (10 mM cisplatin in 50 wt% TMG aq.)) was “killed MDA-MB-231 cells in a dose-dependent manner”, the “Ligand exchange (195Pt NMR)” value ([2]; 50 wt% TMG aq., immediately after dissolution) was “ligand exchange did not occur” and the Chloride ligand exchanged ([2]; 50 wt% TMG aq., room temperature, after 10 days) was 66 mol%. For the same molecule, the “Integral value of the signal of the emerging compound (Pt(NH3)2Cl2 signal fixed as 1.0)” value ([2]; 50 wt% TMG aq., room temperature, day 5) was 1.25, the “Integral value of the signal of the emerging compound (Pt(NH3)2Cl2 signal fixed as 1.0)” value ([2]; 50 wt% TMG aq., room temperature, day 10) was 1.90 and the “Detection of Pt species by 195Pt NMR” value [2] was “not detected”. For the same molecule, the “Time required for dissolution” value [4] was “approximately 1 h”.
